Values quoted from earlier work, collected in patent US20070286899A1, “Photo-composition for the treatment of joint diseases” (priority 2004, published 2007).

Test system: patients who use methotrexate

**Q.** With `CN(Cc1cnc2nc(N)nc(N)c2n1)c1ccc(C(=O)N[C@@H](CCC(=O)O)C(=O)O)cc1` [methotrexate] as the compound, how does the “patients who develop gastrointestinal problems such as diarrhea and nausea” value read?
**A.** 60%
